Assay results published in BindingDB's records for patent USRE49080 (Novartis AG, 2022).

Molecular target: T1, Sodium/glucose cotransporter 2 (Homo sapiens, UniProt P31639)
T1 sequence (P31639 whole entry): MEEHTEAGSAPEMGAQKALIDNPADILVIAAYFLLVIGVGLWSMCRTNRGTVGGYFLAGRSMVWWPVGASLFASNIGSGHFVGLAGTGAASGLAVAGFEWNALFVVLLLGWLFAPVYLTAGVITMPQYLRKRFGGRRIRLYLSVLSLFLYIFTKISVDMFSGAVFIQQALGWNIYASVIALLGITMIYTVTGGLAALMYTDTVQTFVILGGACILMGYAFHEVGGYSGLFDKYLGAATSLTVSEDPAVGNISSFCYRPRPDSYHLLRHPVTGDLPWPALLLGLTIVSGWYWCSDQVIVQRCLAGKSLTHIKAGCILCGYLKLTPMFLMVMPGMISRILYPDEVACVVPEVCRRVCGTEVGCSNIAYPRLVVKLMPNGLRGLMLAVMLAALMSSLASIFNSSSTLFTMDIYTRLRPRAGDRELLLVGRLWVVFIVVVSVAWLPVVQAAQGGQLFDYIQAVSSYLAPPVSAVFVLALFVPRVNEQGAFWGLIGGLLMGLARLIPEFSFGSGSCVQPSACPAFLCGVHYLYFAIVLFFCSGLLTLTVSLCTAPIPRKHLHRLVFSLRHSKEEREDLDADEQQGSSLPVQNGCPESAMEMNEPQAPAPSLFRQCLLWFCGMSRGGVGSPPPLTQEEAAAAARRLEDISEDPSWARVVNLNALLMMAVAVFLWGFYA
Assay: Inhibitory Effect on the Sodium-dependent Glucose Co-Transporter SGLT, SGLT1 and SGLT2
Method: The SGLT-2 assay is carried out as follows: CHO-hSGLT2 cells are cultivated in Ham's F12 Medium (BioWhittaker) with 10% foetal calf serum and 250 μg/mL zeocin (Invitrogen), and HEK293-hSGLT2 cells are cultivated in DMEM medium with 10% foetal calf serum and 250 μg/mL zeocin (Invitrogen). The cells are detached from the culture flasks by washing twice with PBS and subsequently treating with trypsin/EDTA. After the addition of cell culture medium the cells are centrifuged, resuspended in culture medium and counted in a Casy cell counter. Then 40,000 cells per well are seeded into a white, 96-well plate coated with poly-D-lysine and incubated overnight at 37° C., 5% CO2. […] 250 μl of assay buffer and 5 μl of test compound are then added to each well and the plate is incubated for a further 15 minutes in the incubator. 5 μl of 10% DMSO are used as the negative control. The reaction is started by adding 5 μl of 14 C-AMG (0.05 μCi) to each well. After 2 hours' incubation at 37° C., 5% CO2, the cells are washed again with 250 μl of PBS ([…]) and then lysed by the addition of 25 μl of 0.1 N NaOH (5 min. at 37° C.). 200 μl of MicroScint20 (Packard) are added to each well and incubation is continued for a further 20 min at 37° C.

CN1CCOc2ccc(Cc3cc([C@@H]4O[C@H](CO)[C@@H](O)[C@H](O)[C@H]4O)ccc3Cl)cc21 [USRE49080, Example 11]
IC50: 1.4 nM
